# Results published in patent US4117139A, “Medicated compound for treating allergic diseases” (priority 1973, dated 1978).
# Counter-ions that a name gives are not always drawn.
# Experiments:
# [1] = tested on: anaphylactic response caused by ovalbumin; experiment: Anaphylactic response to ovalbumin aerosol in actively sensibilized guinea pigs; details: 25 mg/kg intraperitoneally and 50 mg/kg in stomach; 25% ovalbumin aerosol, 10 minutes
# [2] = tested on: bronchospasm caused by serotonine (5-hydroxytriptamine); experiment: Bronchospasm caused by serotonine; details: in vivo
# [3] = Repeated administration to rats; type: in vivo
# [4] = tested on: foot edema caused by serotonin; experiment: Rat foot edema caused by subplantar serotonin; type: in vivo, rats
# Excerpt: (§1) The medicated compound of the present invention irrespectively of the medication mode exerts anti-edemic antianaphylactic action.
# [5] = Embryotoxicity / teratogenicity in pregnant rats; type: in vivo; details: per os, single doses 3/4 of LD50, various periods of pregnancy
# [6] = tested on: allergic diseases; experiment: Clinical test on patients suffering from allergic diseases; type: in vivo
# Excerpt: (§2) The medicated compound of the present invention was clinically tested on 250 patients aging from 18 to 70 years suffering from allergic diseases for a period of from 3 months to 10 years, and treated with various anti-histamine medicines.
# The treatment with the medicated compound of the present invention was effected in allergological surgeries under ambulatory and stationary conditions.
# The majority of the stationary patients were hospitalized with serious, or lasting allergic responses and frequently with accompanying diseases of the heart-vascular system, and digestive tract.
# (§3) The medicated compound of the present invention was used for the treatment of acute and chronic urticaria, hay fever, Quincke's oedema, dermal itch, chronic eczema, polysyndromic phenomena of intolerance (arthropathy, eosinophilia, temperature increase), dermatoblepharoconjunctivitis, and bronchial-asthma.
# (§4) In the case of dermatoblepharonconjunctivitis and some other allergic ophthalmic diseases, the medicated compound of the present invention was administered per os (one tablet of 0.025 g 3 to 4 times per day).
# The medicated compound of the present invention was used individually (without an additional desensibilizing therapy) per os in a dose of from 3 to 6 tablets (0.025 g each) per day, usually directed after eating.
# [7] = tested on: foot edema caused by dextrane; experiment: Rat foot edema caused by subplantar dextrane; type: in vivo, rats; details: 25 mg/kg intraperitoneally and 50 mg/kg in the stomach; dextrane 0.1 ml of 6% solution; P over 0.05
# Excerpt: as §1
# [8] = tested on: chronic aseptic inflammation; experiment: Chronic aseptic inflammation by hypodermical implantation of wool balls to rats; type: in vivo; details: hypodermically, 25 mg/kg
# [9] = tested on: ophthalmic response (hyperemia and chemosis) caused by histamine; experiment: Ophthalmic response to histamine instilled into conjunctival sac of guinea pigs; type: in vivo
# [10] = tested on: hypotensive activity of intravenously injected histamine; experiment: Hypotensive activity of intravenous histamine in narcotized cats; type: in vivo; details: 0.2 to 0.5 mg/kg, histamine 1 mcg/kg i.v.
# [11] = tested on: bronchospasm caused by acetylcholine; experiment: Bronchospasm caused by acetylcholine; details: in vivo
# [12] = tested on: central nervous system; experiment: Central nervous system effects in test animals; type: in vivo; details: mice, rats, rabbits, cats; different modes of administration
# [13] = tested on: central nervous system; experiment: Depressive effect on the central nervous system; details: in vivo
# Excerpt: The majority of modern anti-histamine medicines reveal a strong sedative effect, whereby their administration is substantially limited in the ambulatory treatment, especially in the case of persons engaged in intellectual pursuits, or persons whose occupation requires quick physical and psychic responses, e.g. drivers of transport vehicles.
# [14] = tested on: bronchoconstricting action of histamine; experiment: Histamine bronchoconstriction in narcotized guinea pigs (Concette-Rossler method); type: in vivo; details: intravenous, 0.1 to 0.2 mg/kg
# Excerpt: As to the mechanism of its action, the medicated compound of the present invention represents an antagonist to histamine liberated in antigen-antibody reactions.
# [15] = Acute toxicity in rats; details: rat, in vivo, po, in the stomach
# [16] = tested on: foot edema caused by formalin; experiment: Rat foot edema caused by subplantar formalin; type: in vivo, rats; details: 25 mg/kg intraperitoneally and 50 mg/kg in the stomach; formalin 0.2 ml of 2% solution; P over 0.05
# Excerpt: as §1
# [17] = Clinical tolerability; type: in vivo, patients
# Excerpt: as §2
# However, with the patients over 60 years of age, or those weakened by accompanying serious diseases, some cases of a "seductive" effect of the medicated compound of the present invention were noticed.
# [18] = tested on: intoxication caused by histamine aerosol; experiment: Histamine aerosol intoxication in guinea pigs; type: in vivo; details: in the stomach, 30 to 50 mg/kg, spraying 300 seconds
# [19] = tested on: dermatoblepharonconjunctivitis and some other allergic ophthalmic diseases; experiment: Clinical test: dermatoblepharoconjunctivitis and other allergic ophthalmic diseases; type: in vivo, patients
# Procedure: as §2, §4
# [20] = tested on: general state and behaviour of animals; experiment: General state and behaviour after single medication; type: in vivo, mice, rats, guinea pigs, cats and dogs; details: different modes, versus dimedrol and diprasine
# [21] = tested on: heart-vascular system, digestive tract, and excretory organs; experiment: Pharmacological and toxicological studies: heart-vascular system, digestive tract, excretory organs; details: in vivo
# [22] = Acute toxicity in mice; details: mouse, in vivo
# [23] = tested on: bronchial asthma; experiment: Clinical test: bronchial asthma; type: in vivo; details: patients
# Excerpt: as §2, §3
# [24] = Acute toxicity in guinea pigs; type: in vivo
# [25] = Acute toxicity, diprasine, intravenous; details: intravenously
# [26] = rats, in the stomach, 22 times, 1/4 of LD50
structure (smiles),measurement,setting,value
OC(c1ccccc1)(c1ccccc1)C1CN2CCC1CC2 (centres unmarked) [(quinuclidyl-3)-diphenylcarbinol hydrochloride],antiallergic effect,[1],clearly pronounced antiallergic effect
same,signs of anaphylactic response / latent period,[1],"increasing the latent period, or completely inhibiting signs of anaphylactic response"
same,influence on bronchospasm caused by serotonine,[2],only a slight influence
same,"influence on general state and behaviour, peripheral blood, biochemical characteristics of blood and urina",[3]; [26],no essential influence
same,pathomorphological changes in internal organs,[3]; [26],no pathomorphological changes in internal organs
same,tolerance of repeated administration,[3]; relatively high doses,well tolerated by the test animals
same,"reduction of foot edema of hind limb, serotonin","[4]; 25 mg/kg intraperitoneally and 50 mg/kg in the stomach, serotonin 5 mcg, P over 0.05",more than 2 times
same,anti-edemic efficiency relative to dimedrol and diprasine,"[4]; rat foot edema (serotonin, formalin, dextrane)","more efficient than dimedrol, and more active than diprasine (promethasine)"
same,embriotoxic or teratogenic effects,[5],does not exert any embriotoxic or teratogenic effects
same,efficacy in allergic diseases,"[6]; acute and chronic urticaria, hay fever, vasomotor rhinitis, Quincke's oedema, itching dermatosis, chronic eczema, polysyndromic phenomena of intolerance",highly efficient
same,efficacy in patients with developed adaptation to other anti-histamine medicines,"[6]; human, in vivo",efficient
same,time to better condition of patients (dermal eruptions and itching reduced),"[6]; per os, 3 to 6 tablets (0.025 g each) per day",3 days
same,"reduction of foot edema of hind limb, dextrane",[7],more than 2 times
same,anti-inflammation effect,[8],pronounced anti-inflammationeffect
same,anti-inflammation effect relative to dimedrol,[8],superior over dimedrol
same,ophthalmic response (hyperemia and chemosis),"[9]; into the stomach, 50 mg/kg, 2% solution of histamine",prevents or substantially reduces ophthalmic response
same,hypotensive activity of histamine,[10],prevents hypotensive activity
same,influence on bronchospasm caused by acetylcholine,[11],only a slight influence
same,action of various hypnotics,[12],does not extend the action of various hypnotics
same,influence on latent period of conditioned reflexes,[12],nor has it any influence
same,influence on spontaneous motor activity,[12],no influence
same,influence on summation ability of the central nervous system,[12],no influence
same,depressive effect on the central nervous system,[13],does not exert a depressive effect on the central nervous system
same,bronchoconstricting action of histamine,[14],"weakens, or inhibits the bronchoconstricting action of histamine"
same,LD50,[15],440 mg/kg
same,"reduction of foot edema of hind limb, formalin",[16],more than 2 times
same,tolerability,"[17]; human, in vivo",well tolerated
same,"""seductive"" effect",[17]; patients over 60 years of age or weakened by accompanying serious diseases,some cases
same,discomfort,[17]; patients with accompanying serious diseases of the digestive tract,short-time phenomena of discomfort are possible
same,time to disappearance of discomfort,"[17]; patients with accompanying serious diseases of the digestive tract, without cancelling or reducing dosage",1 to 2 days
same,"protection from intoxication (dispnea, apnoea, clono-tonic spasm)",[18],completely protects the animals
same,curing action in allergic ophthalmic diseases,"[19]; per os, one tablet of 0.025 g 3 to 4 times per day",satisfactory curing action
same,therapeutic effect with corticosteroids,[19]; simultaneous administration of corticosteroids (dexamethazone),therapeutic effect was enhanced
same,influence on general state and behaviour of animals,[20],to a considerably lesser extent than dimedrol (diphenhydramine) and especially diprasine (promethasine)
same,"influence on heart-vascular system, digestive tract, and excretory organs",[21],only a relatively slight influence
same,LD50,[22]; iv,62 mg/kg
same,LD50,[22]; po,370 mg/kg
same,efficacy in bronchial asthma,[23],inefficient
same,absolute lethal dose,[24],500 mg/kg
"CN(C)CCOC(c1ccccc1)c1ccccc1 [dimedrol, diphenhydramine hydrochloride, reference compound]",effect on ophthalmic response,"[9]; similar experiments, compared with the medicated compound",much less pronounced
"CC(CN1c2ccccc2Sc2ccccc21)N(C)C (centres unmarked) [diprasine (promethasine), promethasine]",dose resulting in the death of half of the animals,[25],25 mg/kg
